The record followed here is patent publication US11034663B2, “Tetrahydronaphtho[1,2-b]furan-2(3H)-one derivatives and preparation and uses thereof” (SHANGHAI QINGDONG BIOTECHNOLOGY CO., LTD., priority 2017, dated 2021).

This assay has as its system adjuvant-induced arthritis in rats. Nature of the assay: Therapeutic effect on adjuvant-induced arthritis in rats. Format: in vivo, Wistar male rats. Here is the method:
Wistar male rats, weighing 160-180 g, were raised in the SPF animal room of Shanghai University of Traditional Chinese Medicine, and employed for experiment following at least one week of culture, where the culture was performed at a temperature of 22+1° C. and a humidity of 55±5% under a 12-h light-dark cycle. The feed and water were sterilized and then freely taken by rats. All experiments were carried out in strict accordance with the relevant regulations for experimental animals.
Bacille Calmette-Guerin (BCG) H37Ra was purchased from Difco Co., Ltd. (US); and the YSL-7A Plethysmometer (paw volume) Meter was produced by the equipment station of Shandong Academy of Medical Sciences.
The establishment of the adjuvant-induced arthritis rat model and the administration therefor were described performed as follows. Liquid paraffin was sterilized at high temperature and pressure, added with a 10 mg/mL aqueous BCG solution and emulsified under repeated suction to produce a Freund's complete adjuvant (CFA) emulsion. In the experiment, individual rats were sensitized by intradermal injection of 0.1 mL of the CFA emulsion at the left hind paw to induce adjuvant arthritis in the limbs.
The grouping and administration were performed as follows. The male wistar rats were randomly divided into four groups according to weight each for 10 rats.
The rats in the blank control group were treated with 0.3% CMC solution daily by intragastric administration.
The rats in the arthritis solvent control group were similarly treated with 0.3% CMC solution daily by intragastric administration.
Rats from the two administration groups were respectively treated with 5 mg/kg and 20 mg/kg of compound 59 by oral administration once a day.
In addition to the blank control group, the rats in the other three groups were sensitized individually by […] injection of 0.1 mL of an adjuvant containing 10 mg/mL inactivated bacillus strain at the left hind foot pad. From the 10th day after the occurrence of arthritis, the rats in the administration groups were orally administered for therapeutic pharmacodynamic observation.
The therapeutic effect was monitored as follows. The rats were observed every day for the development of arthritis symptoms and weighed once every 2-3 days. A 5-level standard scoring system based on the clinical disease index was employed to evaluate the inflammation, where “0”: no redness and swelling; “1”: redness and swelling at the small toe joints; “2”: swelling at the toe joints and toes; “3”: swelling at feet below the ankle joint; and “4”: swelling at the entire feet including ankle joint. The two hind feet were measured for the volume to evaluate the swelling degree.

Entries after “also recorded” stand apart in the source; their conditions may differ.

`Cc1cc(OCc2ccccc2Br)c(C)c2c1CC[C@H]1C(CN(C)C)C(=O)O[C@@H]21` (mixture of isomers) [Compound 59, (3R/S,3aS,9bR)-8-(2-bromobenzyloxy)-3-dimethylaminomethyl-6,9-dimethyl-3a, 4,5,9b-tetrahydronaphtho [1,2-b]furan-2(3H)-one]: the “effect on weight of rats with adjuvant-induced arthritis” value (5 mg/kg and 20 mg/kg, oral, once a day, from the 10th day after occurrence of arthritis, FIG. 1) was “showed similar effect on the weight; also recorded: no significant effect on the weight loss”. Moreover, the “disease index of arthritis (clinical disease index, 0-4 score)” value (5 mg/kg and 20 mg/kg, oral, once a day, compared to the model group, P<0.05, FIG. 2) is given as “significantly lowered”. Also, the “secondary foot lesions (foot swelling, opposite side)” value (5 mg/kg and 20 mg/kg, oral, once a day, compared to the model group, P<0.05, FIG. 3) is reported as “significantly inhibited; also recorded: alleviating”. In addition, the “primary foot lesions (foot swelling, sensitization side)” value (5 mg/kg and 20 mg/kg, oral, once a day, compared to the model group, P<0.05, FIG. 4) was “significantly inhibited; also recorded: alleviating”. The “overall therapeutic effect on adjuvant-induced arthritis in rats” value (daily oral administration) was “remarkable therapeutic effect”.
